The values below come from US20260062376A1, “SQUARAMIDE DERIVATIVES AS CB1 ALLOSTERIC MODULATORS” (RESEARCH TRIANGLE INSTITUTE, priority 2022, published 2026).

Bounds are passed on as bounds.

As usually defined, the IC50 is the midpoint of a concentration-inhibition curve.

Chain of Human CB1 (P21554 whole entry): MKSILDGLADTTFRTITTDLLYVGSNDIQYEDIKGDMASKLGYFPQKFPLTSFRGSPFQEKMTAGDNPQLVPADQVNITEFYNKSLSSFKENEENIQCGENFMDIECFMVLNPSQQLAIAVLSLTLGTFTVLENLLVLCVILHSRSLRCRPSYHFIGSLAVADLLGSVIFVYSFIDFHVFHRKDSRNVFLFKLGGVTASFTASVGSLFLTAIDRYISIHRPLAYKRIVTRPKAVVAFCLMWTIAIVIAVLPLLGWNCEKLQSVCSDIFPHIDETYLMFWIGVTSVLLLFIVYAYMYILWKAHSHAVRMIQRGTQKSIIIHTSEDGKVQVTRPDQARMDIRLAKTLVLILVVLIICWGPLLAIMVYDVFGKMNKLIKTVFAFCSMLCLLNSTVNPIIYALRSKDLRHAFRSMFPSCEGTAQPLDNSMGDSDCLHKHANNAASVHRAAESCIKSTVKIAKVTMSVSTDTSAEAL

This test has as its target Human CB1 (Homo sapiens (Human), UniProt P21554). Briefly: Calcium mobilization assay (antagonist mode vs CP55,940). To be noted: CHO-RD-HGA16 cells stably expressing human CB1; against EC50 concentration of CP55,940; mean ± SEM, at least three experiments. In kind it is cell-based. The protocol: Calcium Mobilization Assay: CHO-RD-HGA16 cells (Molecular Devices, San Jose, California, United States of America) stably expressing the human CB1 receptor were plated into 96-well black-walled assay plates at 25,000 cells/well in 100 μL of Ham's F12 (supplemented with 10% fetal bovine serum, 100 units of penicillin/streptomycin, and 100 μg/mL Normocin) and incubated overnight at 37° C., 5% CO2. Calcium 5 dye (Molecular Devices, San Jose, California, United States of America) was reconstituted according to the manufacturer's instructions. The reconstituted dye was diluted 1:40 in prewarmed (37° C.) assay buffer (lx HBSS, 20 mM HEPES, 2.5 mM probenecid, pH 7.4 at 37° C.). Growth medium was removed, and the cells were gently washed with 100 μL of prewarmed (37° C.) assay buffer. […] After the pretreatment incubation period, the plate was read with a FLIPR Tetra (Molecular Devices, San Jose, California, United States of America). […] Relative fluorescence units (RFU) were plotted against the log of compound concentrations. […] Test compound RFUs were compared to the CP55,940 Emax RFUs to generate % Emax values. For the CB2 agonist and antagonist assays, the same procedures were followed except that stable human CB2—CHO-RD-HGA16 cells were used.
Data Analysis: For calcium mobilization experiments, data were fit to a three-parameter logistic curve to generate IC50 values (GraphPad Prism 6.0, Graphpad Software, San Diego, California, United States of America). For [^35S]GTPγS experiments, data were normalized to maximal CP55,940 (100 nM) stimulation in the absence of test compound (i.e., vehicle=100%).
(In general: Calcium flux is commonly read through the fluorescence of an indicator in the cells.)
For the compound `O=c1c(NCCCc2ccccc2)c(Nc2ccc(Cl)cc2)c1=O` [Compound 12, 3-[(4-Chlorophenyl)amino]-4-[(3-phenylpropyl)amino]cyclobut-3-ene-1,2-dione], the half-maximal inhibitory concentration (IC50) turned out to be 1040 ± 359 nM.
Consider `O=c1c(NCCc2ccc(Cl)cc2)c(Nc2ccc(Cl)cc2)c1=O` [Compound 13, 3-[(4-Chlorophenyl)amino]-4-{[2-(4-chlorophenyl)ethyl]amino}cyclobut-3-ene-1,2-dione], for which the concentration for half-maximal inhibition (IC50) was 222 ± 35 nM.
With `Cc1cccc(CCNc2c(Nc3ccc(Cl)cc3)c(=O)c2=O)c1` [Compound 14, 3-[(4-Chlorophenyl)amino]-4-{[2-(3-methylphenyl)ethyl]amino}cyclobut-3-ene-1,2-dione], the 50% inhibitory concentration (IC50) worked out at 205 ± 41 nM.
To `Cc1ccc(CCNc2c(Nc3ccc(Cl)cc3)c(=O)c2=O)cc1` [Compound 15, 3-[(4-Chlorophenyl)amino]-4-{[2-(4-methylphenyl)ethyl]amino}cyclobut-3-ene-1,2-dione] belongs 164 ± 30 nM.
In the case of `COc1ccccc1CCNc1c(Nc2ccc(Cl)cc2)c(=O)c1=O` [Compound 16, 3-[(4-Chlorophenyl)amino]-4-{[2-(2-methoxyphenyl)ethyl]amino}cyclobut-3-ene-1,2-dione], the IC50 worked out at 1110 ± 88 nM.
To `COc1cccc(CCNc2c(Nc3ccc(Cl)cc3)c(=O)c2=O)c1` [Compound 17, 3-[(4-Chlorophenyl)amino]-4-{[2-(3-methoxyphenyl)ethyl]amino}cyclobut-3-ene-1,2-dione] belongs 350 ± 39 nM; to `COc1ccc(CCNc2c(Nc3ccc(Cl)cc3)c(=O)c2=O)cc1` [Compound 18, 3-[(4-Chlorophenyl)amino]-4-{[2-(4-methoxyphenyl)ethyl]amino}cyclobut-3-ene-1,2-dione], 734 ± 310 nM; to `O=c1c(NCCc2ccccc2C(F)(F)F)c(Nc2ccc(Cl)cc2)c1=O` [Compound 19, 3-[(4-Chlorophenyl)amino]-4-({2-[2-(trifluoromethyl)phenyl]ethyl}amino)cyclobut-3-ene-1,2-dione], 933 nM.
With `O=c1c(NCCc2cccc(C(F)(F)F)c2)c(Nc2ccc(Cl)cc2)c1=O` [Compound 20, 3-[(4-Chlorophenyl)amino]-4-({2-[3-(trifluoromethyl)phenyl]ethyl}amino)cyclobut-3-ene-1,2-dione], the IC50 came to 360 ± 65 nM.
On to `O=c1c(NCCc2ccc(C(F)(F)F)cc2)c(Nc2ccc(Cl)cc2)c1=O` [Compound 21, 3-[(4-Chlorophenyl)amino]-4-({2-[4-(trifluoromethyl)phenyl]ethyl}amino)cyclobut-3-ene-1,2-dione], for which the IC50 turned out to be 275 ± 13 nM.
In the case of `O=c1c(NCCc2ccc(F)cc2)c(Nc2ccc(Cl)cc2)c1=O` [Compound 22, 3-[(4-Chlorophenyl)amino]-4-{[2-(4-fluorophenyl)ethyl]amino}cyclobut-3-ene-1,2-dione], the IC50 worked out at 337 ± 21 nM.
To `O=c1c(NCCc2ccccc2Cl)c(Nc2ccc(Cl)cc2)c1=O` [Compound 23, 3-[(4-Chlorophenyl)amino]-4-{[2-(2-chlorophenyl)ethyl]amino}cyclobut-3-ene-1,2-dione] belongs 1290 ± 201 nM; to `O=c1c(NCCc2ccccc2F)c(Nc2ccc(Cl)cc2)c1=O` [Compound 24, 3-[(4-Chlorophenyl)amino]-4-{[2-(2-fluorophenyl)ethyl]amino}cyclobut-3-ene-1,2-dione], 274 ± 33 nM.
For `O=c1c(NCCc2cccc(F)c2)c(Nc2ccc(Cl)cc2)c1=O` [Compound 25, 3-[(4-Chlorophenyl)amino]-4-{[2-(3-fluorophenyl)ethyl]amino}cyclobut-3-ene-1,2-dione], the IC50 turned out to be 286 ± 28 nM.
As to `CN(C)c1cccc(CCNc2c(Nc3ccc(Cl)cc3)c(=O)c2=O)c1` [Compound 26, 3-[(4-Chlorophenyl)amino]-4-({2-[3-(dimethylamino)phenyl]ethyl}amino)cyclobut-3-ene-1,2-dione], the IC50 amounted to 2100 ± 272 nM.
For `CN(C)c1ccc(CCNc2c(Nc3ccc(Cl)cc3)c(=O)c2=O)cc1` [Compound 27, 3-[(4-Chlorophenyl)amino]-4-({2-[4-(dimethylamino)phenyl]ethyl}amino)cyclobut-3-ene-1,2-dione], the IC50 amounted to 535 ± 135 nM.
To `O=c1c(Nc2ccc(Cl)cc2)c(Nc2cccc(-c3ccccc3)c2)c1=O` [Compound 29, 3-(Biphenyl-3-ylamino)-4-[(4-chlorophenyl)amino]cyclobut-3-ene-1,2-dione] belongs 408 ± 94 nM; to `O=c1c(Nc2ccc(Cl)cc2)c(Nc2cccc(-c3cscn3)c2)c1=O` [Compound 31, 3-[(4-Chlorophenyl)amino]-4-{[3-(1,3-thiazol-4-yl)phenyl]amino}cyclobut-3-ene-1,2-dione], 154 ± 14 nM; to `O=c1c(Nc2ccc(Cl)cc2)c(Nc2cccc(-c3ccsc3)c2)c1=O` [Compound 32, 3-[(4-Chlorophenyl)amino]-4-{[3-(thiophen-3-yl)phenyl]amino}cyclobut-3-ene-1,2-dione], 463 ± 56 nM.
Next, `O=c1c(Nc2ccc(Cl)cc2)c(Nc2ccc(-c3ccccc3)cc2)c1=O` [Compound 34, 3-(Biphenyl-4-ylamino)-4-[(4-chlorophenyl)amino]cyclobut-3-ene-1,2-dione]: 1480 ± 297 nM; `Cc1ccccc1CCNc1c(Nc2ccc(Cl)cc2)c(=O)c1=O` [Compound 35, 3-[(4-Chlorophenyl)amino]-4-{[2-(2-methylphenyl)ethyl]amino}cyclobut-3-ene-1,2-dione]: 353 ± 37 nM; `O=c1c(NCCc2ccccn2)c(Nc2ccc(Cl)cc2)c1=O` [Compound 36, 3-[(4-Chlorophenyl)amino]-4-{[2-(pyridin-2-yl)ethyl]amino}cyclobut-3-ene-1,2-dione]: 958 ± 60 nM.
As for `O=c1c(NCCc2ccncc2)c(Nc2ccc(Cl)cc2)c1=O` [Compound 37, 3-[(4-Chlorophenyl)amino]-4-{[2-(pyridin-4-yl)ethyl]amino}cyclobut-3-ene-1,2-dione], the IC50 is more than 10000 nM.
To `O=c1c(NCCc2ccc(Br)cc2)c(Nc2ccc(Cl)cc2)c1=O` [Compound 38, 3-[(4-Chlorophenyl)amino]-4-{[2-(4-bromophenyl)ethyl]amino}cyclobut-3-ene-1,2-dione] belongs 333 ± 7 nM.
As for `O=c1c(NCCc2cccs2)c(Nc2ccc(Cl)cc2)c1=O` [Compound 39, 3-[(4-Chlorophenyl)amino]-4-{[2-(thiophen-2-yl)ethyl]amino}cyclobut-3-ene-1,2-dione], the IC50 was 399 ± 22 nM.
On to `O=c1c(NCCc2ccc(Cl)c(Cl)c2)c(Nc2ccc(Cl)cc2)c1=O` [Compound 41, 3-[(4-Chlorophenyl)amino]-4-{[2-(3,4-dichlorophenyl)ethyl]amino}cyclobut-3-ene-1,2-dione], for which the IC50 was found to be 877 ± 31 nM.
In the case of `Cc1ccc(CCNc2c(Nc3ccc(Cl)cc3)c(=O)c2=O)cc1C` [Compound 42, 3-[(4-Chlorophenyl)amino]-4-{[2-(3,4-dimethylphenyl)ethyl]amino}cyclobut-3-ene-1,2-dione], the concentration for half-maximal inhibition (IC50) amounted to 408 ± 66 nM.
To `O=c1c(NCCc2cccc(O)c2)c(Nc2ccc(Cl)cc2)c1=O` [Compound 43, 3-[(4-Chlorophenyl)amino]-4-{[2-(3-hydroxyphenyl)ethyl]amino}cyclobut-3-ene-1,2-dione] belongs 2070 ± 204 nM; to `O=c1c(NCCc2ccc(Cl)cc2Cl)c(Nc2ccc(Cl)cc2)c1=O` [Compound 44, 3-[(4-Chlorophenyl)amino]-4-{[2-(2,4-dichlorophenyl)ethyl]amino}cyclobut-3-ene-1,2-dione], 1140 ± 183 nM.
Next, `O=c1c(NCCN2CCCCC2)c(Nc2ccc(Cl)cc2)c1=O` [Compound 45, 3-[(4-Chlorophenyl)amino]-4-{[2-(piperidin-1-yl)ethyl]amino}cyclobut-3-ene-1,2-dione]: more than 10000 nM.
To `CCN(CC)c1ccc(CCNc2c(Nc3ccc(Cl)cc3)c(=O)c2=O)cc1` [Compound 48, 3-[(4-Chlorophenyl)amino]-4-({2-[4-(diethylamino)phenyl]ethyl}amino)cyclobut-3-ene-1,2-dione] belongs 639 ± 247 nM.
For the compound `O=c1c(NCCc2ccc(N3CCCCC3)cc2)c(Nc2ccc(Cl)cc2)c1=O` [Compound 49, 3-[(4-Chlorophenyl)amino]-4-{[2-(4-piperidin-1-ylphenyl)ethyl]amino}cyclobut-3-ene-1,2-dione], the half-maximal inhibitory concentration (IC50) is more than 10000 nM.
`O=c1c(NCCc2ccc(N3CCCC3)cc2)c(Nc2ccc(Cl)cc2)c1=O` [Compound 50, 3-[(4-Chlorophenyl)amino]-4-{[2-(4-pyrrolidin-1-ylphenyl)ethyl]amino}cyclobut-3-ene-1,2-dione]: the IC50 was more than 10000 nM.
Next, `O=c1c(NCCc2ccc(N3CCC3)cc2)c(Nc2ccc(Cl)cc2)c1=O` [Compound 51, 3-{[2-(4-Azetidin-1-ylphenyl)ethyl]amino}-4-[(4-chlorophenyl)amino]cyclobut-3-ene-1,2-dione]: more than 10000 nM.
